The text below walks through data of US11566022B2, “3-(5-methoxy-1-oxoisoindolin-2-yl)piperidine-2,6-dione derivatives and uses thereof” (NOVARTIS AG, priority 2019, dated 2023).

Where two headings read alike, the source gives them in different places.

The test deals with HiBit-WIZ fusion protein (Homo sapiens, UniProt O95785+Q96SW2). As to the kind of experiment: Quantification of WIZ protein levels in HiBit tag fusion protein assay (WIZ HiBit assay in 293T cells). It counts as cell-based. More on the design: Dmax: dose or concentration left out as unconfirmed. Particulars: for Dmax / remaining activity at up to 25 µM / remaining activity: HEK-293T, 293T cells; for remaining activity at up to 25 µM: DMSO-normalized, curve-fitted percentage of WIZ-HiBit remaining at 25 uM, read-out: WIZ Amax; for DC50: WIZ HiBit assay in 293T cells, 10-point, 5-fold dose response, highest concentration 25 μM, about 18 hours, read-out: WIZ AC50; for remaining activity: read-out: WIZ Amax, DMSO-normalized, curve-fitted percentage of WIZ-HiBit remaining at 25 uM.
Sequence of HiBit-WIZ fusion protein (O95785 whole entry, the tested form may be a part): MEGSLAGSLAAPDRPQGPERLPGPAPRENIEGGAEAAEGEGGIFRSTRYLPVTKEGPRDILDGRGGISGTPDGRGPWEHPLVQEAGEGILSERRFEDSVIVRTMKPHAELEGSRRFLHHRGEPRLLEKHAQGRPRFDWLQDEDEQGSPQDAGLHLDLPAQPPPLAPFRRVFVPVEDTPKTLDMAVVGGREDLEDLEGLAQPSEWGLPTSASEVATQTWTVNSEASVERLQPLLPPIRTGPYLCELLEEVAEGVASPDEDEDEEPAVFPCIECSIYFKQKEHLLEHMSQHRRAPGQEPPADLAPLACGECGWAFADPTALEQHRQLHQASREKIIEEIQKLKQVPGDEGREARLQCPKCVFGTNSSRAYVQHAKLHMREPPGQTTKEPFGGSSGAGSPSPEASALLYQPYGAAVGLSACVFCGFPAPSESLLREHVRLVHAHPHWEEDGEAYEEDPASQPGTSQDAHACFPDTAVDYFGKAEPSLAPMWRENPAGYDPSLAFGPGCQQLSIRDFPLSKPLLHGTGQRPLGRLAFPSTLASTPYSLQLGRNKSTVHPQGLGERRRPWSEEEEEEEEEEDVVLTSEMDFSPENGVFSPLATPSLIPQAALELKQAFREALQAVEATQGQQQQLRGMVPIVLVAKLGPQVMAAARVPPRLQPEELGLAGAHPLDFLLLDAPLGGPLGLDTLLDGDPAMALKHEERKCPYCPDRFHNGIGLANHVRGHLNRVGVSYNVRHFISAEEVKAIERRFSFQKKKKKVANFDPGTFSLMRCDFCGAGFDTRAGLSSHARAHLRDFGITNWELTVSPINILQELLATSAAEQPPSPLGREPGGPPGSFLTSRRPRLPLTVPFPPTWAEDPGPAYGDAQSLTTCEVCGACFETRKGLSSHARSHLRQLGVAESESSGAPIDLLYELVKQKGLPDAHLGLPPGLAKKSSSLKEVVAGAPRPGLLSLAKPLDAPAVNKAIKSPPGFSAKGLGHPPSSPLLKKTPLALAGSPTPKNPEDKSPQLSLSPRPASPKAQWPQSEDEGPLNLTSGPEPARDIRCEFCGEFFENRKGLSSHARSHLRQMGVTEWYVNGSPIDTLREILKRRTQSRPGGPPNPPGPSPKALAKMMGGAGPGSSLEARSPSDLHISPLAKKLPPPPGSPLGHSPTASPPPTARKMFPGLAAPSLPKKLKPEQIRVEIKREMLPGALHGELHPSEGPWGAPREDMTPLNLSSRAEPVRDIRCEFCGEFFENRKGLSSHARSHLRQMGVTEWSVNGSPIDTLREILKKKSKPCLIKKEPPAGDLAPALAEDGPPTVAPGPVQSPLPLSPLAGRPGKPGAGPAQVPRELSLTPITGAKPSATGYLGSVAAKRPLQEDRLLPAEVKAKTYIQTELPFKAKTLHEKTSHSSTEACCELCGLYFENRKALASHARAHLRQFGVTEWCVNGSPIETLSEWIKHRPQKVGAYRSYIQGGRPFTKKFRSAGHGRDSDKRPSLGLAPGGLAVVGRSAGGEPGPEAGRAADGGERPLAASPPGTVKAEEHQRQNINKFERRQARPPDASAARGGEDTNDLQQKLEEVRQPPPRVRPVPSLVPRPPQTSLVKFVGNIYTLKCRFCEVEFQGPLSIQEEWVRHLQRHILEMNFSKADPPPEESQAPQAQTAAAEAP
Sequence of HiBit-WIZ fusion protein (Q96SW2 whole entry, the tested form may be a part): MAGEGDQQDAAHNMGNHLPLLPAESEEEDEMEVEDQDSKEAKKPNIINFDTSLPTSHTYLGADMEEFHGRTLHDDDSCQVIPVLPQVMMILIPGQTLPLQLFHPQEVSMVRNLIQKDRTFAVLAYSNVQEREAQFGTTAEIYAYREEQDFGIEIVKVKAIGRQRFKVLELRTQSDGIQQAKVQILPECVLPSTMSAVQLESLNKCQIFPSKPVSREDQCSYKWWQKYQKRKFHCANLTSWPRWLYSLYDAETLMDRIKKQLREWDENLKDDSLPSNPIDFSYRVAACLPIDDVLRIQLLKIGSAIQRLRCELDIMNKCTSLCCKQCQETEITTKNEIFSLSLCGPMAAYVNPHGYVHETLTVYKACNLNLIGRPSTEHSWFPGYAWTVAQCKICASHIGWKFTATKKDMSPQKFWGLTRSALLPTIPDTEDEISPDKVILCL
Sequence of HiBit-WIZ fusion protein (Q16531 whole entry partner, the tested form may be a part): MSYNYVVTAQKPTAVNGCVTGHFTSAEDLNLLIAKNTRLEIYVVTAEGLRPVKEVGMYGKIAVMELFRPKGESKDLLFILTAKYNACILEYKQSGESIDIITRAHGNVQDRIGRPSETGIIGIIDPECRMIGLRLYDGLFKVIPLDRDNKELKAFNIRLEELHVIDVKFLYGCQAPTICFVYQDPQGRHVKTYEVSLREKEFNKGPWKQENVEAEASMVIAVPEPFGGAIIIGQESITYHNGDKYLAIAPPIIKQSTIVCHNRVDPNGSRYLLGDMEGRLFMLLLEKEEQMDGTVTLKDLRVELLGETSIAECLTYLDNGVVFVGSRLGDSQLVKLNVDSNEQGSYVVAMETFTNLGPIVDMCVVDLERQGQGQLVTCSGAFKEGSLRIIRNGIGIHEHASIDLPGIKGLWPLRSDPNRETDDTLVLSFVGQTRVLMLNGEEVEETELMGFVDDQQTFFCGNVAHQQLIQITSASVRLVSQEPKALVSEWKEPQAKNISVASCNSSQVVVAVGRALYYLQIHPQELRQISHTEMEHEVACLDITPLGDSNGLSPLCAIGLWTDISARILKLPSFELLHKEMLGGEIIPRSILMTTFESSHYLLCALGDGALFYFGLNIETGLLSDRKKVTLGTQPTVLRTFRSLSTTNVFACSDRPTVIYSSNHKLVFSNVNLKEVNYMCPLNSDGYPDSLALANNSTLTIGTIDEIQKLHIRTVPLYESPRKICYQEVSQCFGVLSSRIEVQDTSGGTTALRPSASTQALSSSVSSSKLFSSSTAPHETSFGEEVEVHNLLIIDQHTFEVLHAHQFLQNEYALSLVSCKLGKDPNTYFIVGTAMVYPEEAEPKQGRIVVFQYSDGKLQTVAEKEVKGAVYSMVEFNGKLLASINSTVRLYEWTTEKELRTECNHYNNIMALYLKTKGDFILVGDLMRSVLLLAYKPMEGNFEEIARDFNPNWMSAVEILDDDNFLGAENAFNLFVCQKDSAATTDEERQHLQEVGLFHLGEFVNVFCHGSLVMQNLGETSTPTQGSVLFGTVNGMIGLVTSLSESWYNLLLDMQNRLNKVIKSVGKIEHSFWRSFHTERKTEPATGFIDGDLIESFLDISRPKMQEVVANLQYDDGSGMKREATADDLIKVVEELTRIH

[1] abbreviates: 100 minus Amax, read-out: % degradation of WIZ (100-Amax).
The mark [2] stands for this setting: read-out: % degradation of WIZ (100-Amax), 100 minus Amax.

Turning to `CC(C)(C)OC(=O)N1CCC(c2ccccc2CN2CCCC[C@@H]2COc2ccc3c(c2)CN(C2CCC(=O)NC2=O)C3=O)CC1` (stereo partly drawn) [Compound I-122, Tert-butyl 4-(2-(((2R)-2-(((2-(2,6-dioxopiperidin-3-yl)-1-oxoisoindolin-5-yl)oxy)methyl)piperidin-1-yl)methyl)phenyl)piperidine-1-carboxylate], the remaining activity at up to 25 µM was determined as 12.4% and the DC50 came out at 51 nM. Besides, the Dmax under setting [1] came to 87.6%.
The like results for `CCN1CCC(c2ccccc2CN2CCCC[C@@H]2COc2ccc3c(c2)CN(C2CCC(=O)NC2=O)C3=O)CC1` (stereo partly drawn) [Compound I-124, 3-(5-(((R)-1-(2-(1-ethylpiperidin-4-yl)benzyl)piperidin-2-yl)methoxy)-1-oxoisoindolin-2-yl)piperidine-2,6-dione] were, in that order, 5.61%, 40 nM and 94.4%.
In the case of `CC(C)(C)OC(=O)N1CCC(c2ccc(CN3CCCC[C@@H]3COc3ccc4c(c3)CN(C3CCC(=O)NC3=O)C4=O)cc2)CC1` (stereo partly drawn) [Compound I-127, Tert-butyl 4-(4-(((2R)-2-(((2-(2,6-dioxopiperidin-3-yl)-1-oxoisoindolin-5-yl)oxy)methyl)piperidin-1-yl)methyl)phenyl)piperidine-1-carboxylate], the remaining activity at up to 25 µM was 6.64% and the DC50 stood at 1.9 nM. Further, the Dmax under setting [1] stood at 93.4%.
Regarding `CCN1CCC(c2ccc(CN3CCCC[C@@H]3COc3ccc4c(c3)CN(C3CCC(=O)NC3=O)C4=O)cc2)CC1` (stereo partly drawn) [Compound I-129, 3-(5-(((R)-1-(4-(1-ethylpiperidin-4-yl)benzyl)piperidin-2-yl)methoxy)-1-oxoisoindolin-2-yl)piperidine-2,6-dione], the remaining activity was determined as 32.3% and the DC50 was 46 nM. Also, the Dmax under setting [2] stood at 67.7%.
With `COc1ccc(CN2CCCC[C@@H]2COc2ccc3c(c2)CN(C2CCC(=O)NC2=O)C3=O)c(OC)c1` (stereo partly drawn) [Compound I-131, 3-(5-(((R)-1-(2,4-dimethoxybenzyl)piperidin-2-yl)methoxy)-1-oxoisoindolin-2-yl)piperidine-2,6-dione], the remaining activity at up to 25 µM was found to be 11.1% and the DC50 stood at 0.52 nM. Besides, the Dmax under setting [1] worked out at 88.9%.
Turning to `COc1ccccc1CN1CCCC[C@@H]1COc1ccc2c(c1)CN(C1CCC(=O)NC1=O)C2=O` (stereo partly drawn) [Compound I-133, 3-(5-(((R)-1-(2-methoxybenzyl)piperidin-2-yl)methoxy)-1-oxoisoindolin-2-yl)piperidine-2,6-dione], the remaining activity is 16.7% and the DC50 came to 8.8 nM. In addition, the Dmax under setting [2] came out at 83.3%.
For `O=C1CCC(N2Cc3cc(OC[C@H]4CCCCN4Cc4cccc5c4OCCO5)ccc3C2=O)C(=O)N1` (stereo partly drawn) [Compound I-135, 3-(5-(((R)-1-((2,3-dihydrobenzo[b][1,4]dioxin-5-yl)methyl)piperidin-2-yl)methoxy)-1-oxoisoindolin-2-yl)piperidine-2,6-dione], the remaining activity at up to 25 µM came to 18.2% and the DC50 came to 34 nM. Under setting [1], the Dmax was determined as 81.8%.
For `O=C1CCC(N2Cc3cc(OC[C@H]4CCCCN4Cc4ccc5c(c4)OCO5)ccc3C2=O)C(=O)N1` (stereo partly drawn) [Compound I-137, 3-(5-(((R)-1-(benzo[d][1,3]dioxol-5-ylmethyl)piperidin-2-yl)methoxy)-1-oxoisoindolin-2-yl)piperidine-2,6-dione], the remaining activity worked out at 10% and the DC50 stood at 1.5 nM. For the same molecule, the Dmax under setting [2] stood at 90%.
For the molecule `O=C1CCC(N2Cc3cc(OC[C@H]4CCCCN4Cc4cccc(F)c4O)ccc3C2=O)C(=O)N1` (some centres unmarked) [Compound I-143], the remaining activity at up to 25 µM was determined as 62.6%. Moreover, the Dmax under setting [1] was determined as 37.4%.
Regarding `O=C1CCC(N2Cc3cc(OC[C@H]4CCCCN4Cc4cc(F)c(F)c(F)c4)ccc3C2=O)C(=O)N1` (some centres unmarked) [Compound I-144], the remaining activity at up to 25 µM came out at 6.3% and the DC50 is 76 nM. The Dmax under setting [1] amounted to 93.7%.
The like results for `Cc1nc(C)c(CN2CCCC[C@@H]2COc2ccc3c(c2)CN(C2CCC(=O)NC2=O)C3=O)s1` (some centres unmarked) [Compound I-145] were, in that order, 2.68%, 19 nM and 97.3%.
For the molecule `O=C1CCC(N2Cc3cc(OC[C@H]4CCCCN4Cc4ccncc4)ccc3C2=O)C(=O)N1` (some centres unmarked) [Compound I-146], the remaining activity at up to 25 µM was 31.3% and the DC50 came to 2200 nM. Also, under setting [1], the Dmax turned out to be 68.7%.
The like results for `O=C1CCC(N2Cc3cc(OC[C@H]4CCCCN4Cc4c(F)cccc4F)ccc3C2=O)C(=O)N1` (some centres unmarked) [Compound I-147] were, in that order, 28.4%, 1080 nM and 71.6%.
The matching figures for `O=C1CCC(N2Cc3cc(OC[C@H]4CCCCN4Cc4ccc(O)cc4)ccc3C2=O)C(=O)N1` (some centres unmarked) [Compound I-148]: 5.51%, 20 nM and 94.5%.
The matching figures for `O=C1CCC(N2Cc3cc(OC[C@H]4CCCCN4Cc4cccnc4F)ccc3C2=O)C(=O)N1` (some centres unmarked) [Compound I-149]: 43.1%, 11400 nM and 56.9%.
Consider `O=C1CCC(N2Cc3cc(OC[C@H]4CCCCN4Cc4cnc5ccccc5c4)ccc3C2=O)C(=O)N1` (some centres unmarked) [Compound I-150], for which the remaining activity at up to 25 µM is 1.39% and the DC50 came out at 17 nM. The Dmax under setting [1] amounted to 98.6%.
The matching figures for `Cc1csc(CN2CCCC[C@@H]2COc2ccc3c(c2)CN(C2CCC(=O)NC2=O)C3=O)n1` (some centres unmarked) [Compound I-151]: 34.9%, 3430 nM and 65.1%.
The matching figures for `O=C1CCC(N2Cc3cc(OC[C@H]4CCCCN4Cc4ccc5ccccc5n4)ccc3C2=O)C(=O)N1` (some centres unmarked) [Compound I-152]: 2.52%, 48 nM and 97.5%.
The like results for `CCc1cc(CN2CCCC[C@@H]2COc2ccc3c(c2)CN(C2CCC(=O)NC2=O)C3=O)ccc1C1CCN(C(=O)OC(C)(C)C)CC1` (stereo partly drawn) [Compound I-155, Tert-butyl 4-(4-(((2R)-2-(((2-(2,6-dioxopiperidin-3-yl)-1-oxoisoindolin-5-yl)oxy)methyl)piperidin-1-yl)methyl)-2-ethylphenyl)piperidine-1-carboxylate] were, in that order, 24.9%, 20 nM and 75.2%.
As for `CCc1cc(CN2CCCC[C@@H]2COc2ccc3c(c2)CN(C2CCC(=O)NC2=O)C3=O)ccc1C1CCN(CC)CC1` (stereo partly drawn) [Compound I-157, 3-(5-(((R)-1-(3-ethyl-4-(1-ethylpiperidin-4-yl)benzyl)piperidin-2-yl)methoxy)-1-oxoisoindolin-2-yl)piperidine-2,6-dione], the remaining activity was found to be 37% and the DC50 is 160 nM. Under setting [2], the Dmax is 63%.
Consider `CC(C)(C)c1ccc(CN2CCCC[C@@H]2COc2ccc3c(c2)CN(C2CCC(=O)NC2=O)C3=O)cc1` (some centres unmarked) [Compound I-158], for which the remaining activity at up to 25 µM came to 5.93% and the DC50 is 0.083 nM. Moreover, under setting [1], the Dmax stood at 94.1%.
With `O=C1CCC(N2Cc3cc(OC[C@H]4CCCCN4Cc4ccc(N5CCCCC5)cc4)ccc3C2=O)C(=O)N1` (stereo partly drawn) [Compound I-161, 3-(1-oxo-5-(((R)-1-(4-(piperidin-1-yl)benzyl)piperidin-2-yl)methoxy)isoindolin-2-yl)piperidine-2,6-dione], the remaining activity at up to 25 µM came to 8.45% and the DC50 was determined as 0.37 nM. Besides, under setting [1], the Dmax came out at 91.5%.
The like results for `COC12CC(CN3CCCC[C@@H]3COc3ccc4c(c3)CN(C3CCC(=O)NC3=O)C4=O)(C1)C2` (stereo partly drawn) [Compound I-163, 3-(5-(((R)-1-((3-methoxybicyclo[1.1.1]pentan-1-yl)methyl)piperidin-2-yl)methoxy)-1-oxoisoindolin-2-yl)piperidine-2,6-dione] were, in that order, 29.5%, 29 nM and 70.5%.
For the molecule `CCN1CCN(c2ccc(F)cc2CN2CCCC[C@@H]2COc2ccc3c(c2)CN(C2CCC(=O)NC2=O)C3=O)CC1` (stereo partly drawn) [Compound I-169, 3-(5-(((R)-1-(2-(4-ethylpiperazin-1-yl)-5-fluorobenzyl)piperidin-2-yl)methoxy)-1-oxoisoindolin-2-yl)piperidine-2,6-dione], the remaining activity was 15.4% and the DC50 came to 34 nM. In addition, the Dmax under setting [2] is 84.6%.
On to `O=C1CCC(N2Cc3cc(OC[C@H]4CCCCN4Cc4ccc(C5(C(F)(F)F)CC5)cc4)ccc3C2=O)C(=O)N1` (stereo partly drawn) [Compound I-173, 3-(1-oxo-5-(((R)-1-(4-(1-(trifluoromethyl)cyclopropyl)benzyl)piperidin-2-yl)methoxy)isoindolin-2-yl)piperidine-2,6-dione], for which the remaining activity at up to 25 µM came out at 5.71% and the DC50 amounted to 0.22 nM. The Dmax under setting [1] worked out at 94.3%.
The matching figures for `O=C1CCC(N2Cc3cc(OC[C@H]4CCCCN4Cc4cccc5c4NCCO5)ccc3C2=O)C(=O)N1` (stereo partly drawn) [Compound I-178, 3-(5-(((R)-1-((3,4-dihydro-2H-benzo[b][1,4]oxazin-5-yl)methyl)piperidin-2-yl)methoxy)-1-oxoisoindolin-2-yl)piperidine-2,6-dione]: 21.3%, 20 nM and 78.7%.
`CCN1CCOc2cccc(CN3CCCC[C@@H]3COc3ccc4c(c3)CN(C3CCC(=O)NC3=O)C4=O)c21` (stereo partly drawn) [Compound I-179, 3-(5-(((R)-1-((4-ethyl-3,4-dihydro-2H-benzo[b][1,4]oxazin-5-yl)methyl)piperidin-2-yl)methoxy)-1-oxoisoindolin-2-yl)piperidine-2,6-dione]: the remaining activity came out at 26.1% and the DC50 was 5.7 nM. Moreover, the Dmax under setting [2] amounted to 73.9%.
